The source of these data is ChEMBL document CHEMBL1201862, “PubChem BioAssay data set” (2004).

Molecules are shown by their SMILES.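 Briefly, cells in 96-well plates were exposed to five compound concentrations for 48 h, and endpoints were estimated by linear interpolation. Here, GI50 denotes the concentration required for 50% inhibition of growth.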 Calls of active or inactive are those of the source. Cut-off read from the data, not from the text of the source: active = GI50 up to about 1.1 µM and inactive = higher. A value given as a limit tells only on which side of the number the result lay.

Test systems include RPMI-8226; SNB-19; SK-MEL-2; SF-539; HT-29; NCI-H226; OVCAR-4; SK-MEL-5; SK-OV-3; Malme-3M; HOP-92; EKVX; SF-295; IGROV-1; HCT-15; K562; NCI-H460; UACC-257; U-251.
What all share (assay): NCI tumour cell line growth inhibition, 48 h

Regarding `O=C(CC1(O)C(=O)Nc2ccccc21)c1ccccc1Cl` (stereo not drawn), the GI50 with RPMI-8226, with SNB-19, in the test with SK-MEL-2, in the test with SF-539, in the test on HT-29 and with NCI-H226 was > 100 µM (inactive) each time. Moreover, the GI50 in the test on OVCAR-4, with SK-MEL-5, in the test with SK-OV-3, with Malme-3M, with HOP-92 and in the test with EKVX was > 100 µM (inactive) in each case. Besides, the GI50 with SF-295 is > 100 µM (inactive); in the test with IGROV-1, > 100 µM (inactive); in the test with HCT-15, over 100 µM; in the test on K562 it was > 100 µM (inactive); in the test on NCI-H460 it was > 100 µM (inactive); with UACC-257, > 100 µM (inactive).

For the compound `COC(=O)C(=O)C(CC(=O)Nc1c(C)cccc1C)C(=O)OC` (stereo not drawn), the GI50 in the test on RPMI-8226, in the test with SNB-19, with SK-MEL-2, in the test with SF-539, in the test on U-251 and with HT-29 was > 100 µM (inactive) throughout. Besides, the GI50 in the test on NCI-H226, with OVCAR-4, with SK-MEL-5, in the test with SK-OV-3, in the test on Malme-3M and in the test with HOP-92 was > 100 µM (inactive) throughout. Besides, the GI50 is > 100 µM (inactive) with EKVX; > 100 µM (inactive) with SF-295; > 100 µM (inactive) in the test with IGROV-1; over 100 µM in the test on HCT-15; > 100 µM (inactive) in the test on K562; > 100 µM (inactive) with NCI-H460. Further, the GI50 in the test on UACC-257 is > 100 µM (inactive).

Turning to `Nc1nncc2c1c(Br)cn2C1OC(CO)C(O)C1O` (stereo not drawn), the GI50 in the test on RPMI-8226 was 10.2 µM (inactive); in the test with SNB-19, 64.3 µM (inactive); with SK-MEL-2 it was > 40.8 µM (inactive); in the test on SF-539, 30.5 µM (inactive); with U-251, > 70.6 µM (inactive); in the test on HT-29 it was 8.39 µM (inactive). Moreover, the GI50 was > 100 µM (inactive) in the test with NCI-H226; > 52.7 µM (inactive) in the test with OVCAR-4; > 100 µM (inactive) in the test with SK-MEL-5; > 96.6 µM (inactive) in the test on SK-OV-3; > 79.1 µM (inactive) in the test on Malme-3M; 8.63 µM (inactive) with HOP-92. In addition, the GI50 in the test on EKVX was 25.6 µM (inactive); in the test on SF-295 it was 39.6 µM (inactive); with IGROV-1, 25.1 µM (inactive); in the test with HCT-15, 4.23 µM; in the test with K562, 5.73 µM (inactive); in the test with NCI-H460 it was 28.8 µM (inactive). Moreover, the GI50 with UACC-257 was > 100 µM (inactive).

`O=C(/C=C\c1ccccc1O)c1ccc(O)cc1O`: the GI50 with RPMI-8226 is 62.8 µM (inactive); with SNB-19, > 100 µM (inactive); with SK-MEL-2 it was > 100 µM (inactive); in the test with SF-539 it was > 100 µM (inactive); with U-251, > 100 µM (inactive); in the test with HT-29, > 100 µM (inactive). In addition, the GI50 was > 100 µM (inactive) in the test on NCI-H226; 54.6 µM (inactive) in the test with OVCAR-4; > 100 µM (inactive) with SK-MEL-5; > 100 µM (inactive) with SK-OV-3; > 100 µM (inactive) in the test on Malme-3M; > 100 µM (inactive) with HOP-92. For the same compound, the GI50 in the test on EKVX was > 100 µM (inactive); with SF-295, > 100 µM (inactive); in the test with IGROV-1, > 100 µM (inactive); with HCT-15, over 100 µM; in the test with K562 it was > 100 µM (inactive); with NCI-H460, > 100 µM (inactive). Moreover, the GI50 in the test with UACC-257 is > 100 µM (inactive).

Turning to `COc1cc2cccc(/N=C\c3ccccc3Cl)c2cc1OC`, the GI50 with RPMI-8226 is 78.2 µM (inactive); with SNB-19 it was > 100 µM (inactive); in the test with SK-MEL-2 it was > 100 µM (inactive); with SF-539, > 100 µM (inactive); in the test with U-251, 95.9 µM (inactive); with HT-29, 79.6 µM (inactive). In addition, the GI50 in the test on NCI-H226, in the test with OVCAR-4, with SK-MEL-5, with SK-OV-3, in the test on Malme-3M and with HOP-92 was > 100 µM (inactive) throughout. For the same compound, the GI50 was > 100 µM (inactive) with EKVX; 69 µM (inactive) with SF-295; > 100 µM (inactive) in the test with IGROV-1; 25.5 µM with HCT-15; 4.8 µM (inactive) in the test on K562; > 100 µM (inactive) in the test on NCI-H460. Further, in the test on UACC-257, the GI50 is > 100 µM (inactive).

Take `N#Cc1nc(C2OC(COC(=O)c3ccccc3)C(OC(=O)c3ccccc3)C2OC(=O)c2ccccc2)oc1N` (stereo not drawn): the GI50 was 2.1 µM (inactive) with RPMI-8226; > 100 µM (inactive) in the test with SNB-19; 27.3 µM (inactive) in the test with SK-MEL-2; 58.6 µM (inactive) in the test with SF-539; 32.5 µM (inactive) in the test with U-251; 9.16 µM (inactive) in the test on HT-29. Further, the GI50 with NCI-H226 was 14.2 µM (inactive); with OVCAR-4 it was 10.8 µM (inactive); in the test with SK-MEL-5 it was 14.5 µM (inactive); in the test with SK-OV-3 it was > 100 µM (inactive); in the test with Malme-3M, 84.3 µM (inactive); in the test with HOP-92, 96.4 µM (inactive). Also, the GI50 was 39.5 µM (inactive) with EKVX; 39.2 µM (inactive) with SF-295; > 100 µM (inactive) with IGROV-1; 16.7 µM in the test with HCT-15; 6.12 µM (inactive) with K562; 76.4 µM (inactive) with NCI-H460. Moreover, in the test with UACC-257, the GI50 is 20.7 µM (inactive).

Turning to `CCOC(=O)N1N=NC2C3OC(C[C@@]3(C#N)OC(C)=O)[C@H]21` (stereo partly drawn), the GI50 with RPMI-8226, with SNB-19, in the test with SK-MEL-2, in the test with SF-539, in the test with U-251 and in the test with HT-29 was > 100 µM (inactive) throughout. The GI50 in the test with NCI-H226, with OVCAR-4, in the test on SK-MEL-5, in the test on SK-OV-3, in the test with Malme-3M and in the test with HOP-92 was > 100 µM (inactive) throughout. Moreover, the GI50 with EKVX was > 100 µM (inactive); with SF-295 it was > 100 µM (inactive); in the test with IGROV-1, > 100 µM (inactive); in the test on HCT-15 it was over 100 µM; in the test on K562 it was > 100 µM (inactive); in the test on NCI-H460 it was > 100 µM (inactive). Moreover, the GI50 with UACC-257 was > 100 µM (inactive).

On to `CCOC(=O)c1[nH]c2cc(OC)c(OC)cc2c1CN(C)C`, for which the GI50 in the test on RPMI-8226, in the test with SNB-19, in the test on SK-MEL-2, in the test with SF-539, in the test on U-251 and in the test with HT-29 was > 100 µM (inactive) throughout. Also, the GI50 with NCI-H226, in the test on OVCAR-4, with SK-MEL-5, in the test with SK-OV-3, with Malme-3M and with HOP-92 was > 100 µM (inactive) each time. The GI50 with EKVX is > 100 µM (inactive); in the test on SF-295 it was > 100 µM (inactive); in the test with IGROV-1 it was > 100 µM (inactive); in the test with HCT-15 it was over 100 µM; with K562, > 100 µM (inactive); in the test on NCI-H460, > 100 µM (inactive). Also, in the test on UACC-257, the GI50 was > 100 µM (inactive).

As to `CC(=O)c1ccc(NC(=O)C(=O)Nn2c(S)nc3ccccc3c2=O)cc1`, the GI50 in the test with RPMI-8226, with SNB-19, in the test on SK-MEL-2, with SF-539, with U-251 and with HT-29 was > 100 µM (inactive) each time. For the same compound, the GI50 with NCI-H226, in the test with OVCAR-4, in the test on SK-MEL-5, in the test with SK-OV-3, in the test on Malme-3M and with HOP-92 was > 100 µM (inactive) each time. Besides, the GI50 is > 100 µM (inactive) in the test on EKVX; > 100 µM (inactive) with SF-295; > 100 µM (inactive) in the test on IGROV-1; over 100 µM in the test with HCT-15; > 100 µM (inactive) with K562; > 100 µM (inactive) with NCI-H460. Besides, in the test on UACC-257, the GI50 is > 100 µM (inactive).

For `N#CCc1ccc(C(C#N)/C(CCCC(=O)Nc2cccc([N+](=O)[O-])c2)=N\NC(=O)NN)cc1` (stereo not drawn), the GI50 with RPMI-8226, with SNB-19, with SK-MEL-2, in the test with SF-539, in the test with U-251 and in the test on HT-29 was > 100 µM (inactive) each time. The GI50 with NCI-H226, in the test with OVCAR-4, with SK-MEL-5, in the test on SK-OV-3, with Malme-3M and in the test with HOP-92 was > 100 µM (inactive) throughout. The GI50 in the test on EKVX was > 100 µM (inactive); in the test on SF-295, > 100 µM (inactive); in the test with IGROV-1, > 100 µM (inactive); with HCT-15 it was over 100 µM; in the test on K562, > 100 µM (inactive); in the test on NCI-H460 it was > 100 µM (inactive). Besides, the GI50 in the test on UACC-257 was > 100 µM (inactive).

With `C=C[C@]1(C)CCC2=C(CCC3C2(C)CCC[C@]3(C)CO)C1` (stereo partly drawn), the GI50 in the test on RPMI-8226 was 27.2 µM (inactive); with SNB-19 it was > 100 µM (inactive); in the test on SK-MEL-2, 45.9 µM (inactive); with SF-539 it was > 100 µM (inactive); in the test with U-251, 26.9 µM (inactive); in the test with HT-29, 24.1 µM (inactive). In addition, the GI50 in the test with NCI-H226 is 41.2 µM (inactive); in the test with OVCAR-4, > 100 µM (inactive); in the test with SK-MEL-5, 67.1 µM (inactive); in the test on SK-OV-3, > 100 µM (inactive); in the test on Malme-3M, > 100 µM (inactive); in the test on HOP-92 it was 43.1 µM (inactive). The GI50 with EKVX was 51.9 µM (inactive); in the test on SF-295, 43.6 µM (inactive); with IGROV-1, > 100 µM (inactive); in the test on HCT-15, 33 µM; with K562 it was 34.8 µM (inactive); in the test on NCI-H460, 35.1 µM (inactive). Besides, the GI50 with UACC-257 is 51.5 µM (inactive).
